Legend:
[1] = Drug distribution in kidneys of Balb/C nu/nu mouse xenografted with human HeLa cells at 2.5 umol/kg, iv measured for 24 hr by IVIS imaging analysis; type: ADME, organism-based, Kidney; settings: in vivo, dose 2.5 µmol/kg
HeLa = test: Induction of apoptosis in human HeLa cells assessed as necrotic cells at 50 nM incubated for 3 hrs with photo-irradiation at 54 J/cm2 by Annexin V-FITC/PI staining based flow cytometry relative to control; type: functional
[2] = Drug accumulation in tumor of Balb/C nu/nu mouse xenografted with human HeLa cells at 2.5 umol/kg, iv measured for 3 hrs by IVIS imaging analysis; type: ADME, organism-based, Neoplasm; settings: in vivo, dose 2.5 µmol/kg

## COc1ccc2c(c1)CCc1c(-c3ccccc3)c3n(c1-2)[B-](F)(F)[N+]1=C(c2ccc(OCC(=O)NCCCN4CCOCC4)cc2)C(I)=C(c2ccccc2)C1=N3
[1]
  Drug uptake: Not Active
HeLa
  Activity: 2.08%
[2]
  Drug uptake: Active

From ChEMBL document CHEMBL5338790, “Discovery of Subcellular-Targeted Aza-BODIPY Photosensitizers for Efficient Photodynamic Antitumor Therapy” (J Med Chem, 2023)
